Results as given in patent publication US20220273659A1, “HETEROCYCLIC COMPOUNDS AS KINASE INHIBITORS” (NUVATION BIO INC., priority 2019, published 2022).
Read-outs that look alike come from different tables or passages of the source.

Columns and labels:
[1] = test system: MCF-7 breast adenocarcinoma cells; assay: Cancer cell proliferation assay, single agent (cell viability); type: cell-based; details: Homo sapiens
Summary of the method: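 Viability read by resazurin or CellTiter-Glo after 24 h treatment (BT-549) or 144 h with a 72 h medium change (MCF-7, DU4475). Compounds tested at 7–9 concentrations, e.g. 1.1 nM–10 μM, added the day after seeding; IC50 by nonlinear sigmoidal regression.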

FMS kinase = molecular target: T1, FMS kinase (Homo sapiens, UniProt P07333); assay: LanthaScreen Eu Kinase Binding Assay (ATP, fluorescent-PolyGT substrate); type: biochemical
T1 construct: purchased Invitrogen (Life Technologies)
Summary of the method: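 TR-FRET read (ex 340, em 495 and 520 nm) after EDTA/Tb-labelled antibody stop; IC50 by four-parameter logistic fit of percent inhibition. Reaction: 1.25 nM FMS, 10 min compound preincubation (3-fold series), then 1 h at room temperature with 10 μM ATP and 200 nM fluorescent PolyGT.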

PI3Kδ kinase = molecular target: T2, PI3Kδ kinase (Homo sapiens, UniProt O00329); assay: PI3Kδ kinase assay (ADP-Glo, Reaction Biology); type: biochemical
T2 construct: purchased Reaction Biology Corporation (assay service)
Summary of the method: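 Kinase in Tris-HCl 40 mM pH 7.5, MgCl2 20 mM, orthovanadate 3 mM, DTT 2 mM, 0.05% CHAPS, 1% DMSO, preincubated 10 min at room temperature with compound (about 0.5 nM–100 μM). ATP started a 30-min reaction at 30 °C. ADP-Glo luminescence converted to μM ADP via standard curve; IC50 from nonlinear regression.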

CDK6 = molecular target: T3, CDK6 (Homo sapiens, UniProt Q00534); assay: In vitro kinase inhibition IC50, luminescence (ADP Glo), retinoblastoma substrate; type: biochemical; details: read-out: CDK6/D1 IC50
T3 construct: purchased Invitrogen PR8422B
Summary of the method: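 IC50 derived by four-parameter logistic fit of percent inhibition, read as ADP-Glo luminescence. Reactions: 5 nM CDK6, 1 μM retinoblastoma, 25 μM ATP, test compound 0.1–200 nM final, 2 h at room temperature.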

CDK4 = molecular target: T4, CDK4 (Homo sapiens, UniProt P11802); assay: as above; type: biochemical; details: read-out: CDK4/D1 IC50
T4 construct: purchased Invitrogen PR8064A
Summary of the method: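 Inhibition of CDK4 was quantified by ADP Glo luminescence with retinoblastoma as substrate. Reactions held 5 nM kinase, 1 μM retinoblastoma and 25 μM ATP and ran 2H at room temperature. A Synergy Neo reader took signals 15 min and 45 min after detection reagent, and percent inhibition was fitted to a four-parameter logistic model in XLfit to obtain IC50.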

CDK1 (cyclin B) = molecular target: T5, CDK1 (cyclin B) (Homo sapiens, UniProt P06493); assay: Z'-LYTE kinase assay; type: biochemical
T5 construct: purchased Invitrogen Life Technologies (assay service)
Method: The plates were shaken for 30 seconds, and incubated for 60 minutes at room temperature. […] The plates were read on fluorescence plate reader with Dual emission at 445 nm and 520 nm.
The following equations were used for Z′-LYTE™ Screening Assay Data Analysis.

[2] = MCF7, Table 4, Rb positive, treatment 144 Hr with medium change at 72 Hr, Cell Titer-Glo or resazurin
[3] = MCF7, Table 5, parental, non-resistant cell line compared with MCF-7-PR

T4 sequence (P11802 whole entry): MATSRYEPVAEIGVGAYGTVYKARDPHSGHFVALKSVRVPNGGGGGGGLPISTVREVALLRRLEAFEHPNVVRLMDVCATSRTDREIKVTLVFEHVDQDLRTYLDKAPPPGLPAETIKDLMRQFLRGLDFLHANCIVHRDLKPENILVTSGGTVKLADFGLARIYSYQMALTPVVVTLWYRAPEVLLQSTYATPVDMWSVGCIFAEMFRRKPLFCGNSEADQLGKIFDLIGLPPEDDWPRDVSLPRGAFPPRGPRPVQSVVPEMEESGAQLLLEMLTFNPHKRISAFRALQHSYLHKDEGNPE
T4 sequence (P24385 whole entry partner): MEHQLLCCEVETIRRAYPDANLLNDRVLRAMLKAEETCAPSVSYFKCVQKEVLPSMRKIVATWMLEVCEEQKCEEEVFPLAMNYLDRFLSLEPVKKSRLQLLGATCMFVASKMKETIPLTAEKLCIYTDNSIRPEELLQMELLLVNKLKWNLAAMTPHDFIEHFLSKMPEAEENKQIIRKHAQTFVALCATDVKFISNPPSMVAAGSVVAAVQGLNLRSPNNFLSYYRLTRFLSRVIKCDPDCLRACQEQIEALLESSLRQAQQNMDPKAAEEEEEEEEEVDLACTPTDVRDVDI
T2 sequence (O00329 whole entry): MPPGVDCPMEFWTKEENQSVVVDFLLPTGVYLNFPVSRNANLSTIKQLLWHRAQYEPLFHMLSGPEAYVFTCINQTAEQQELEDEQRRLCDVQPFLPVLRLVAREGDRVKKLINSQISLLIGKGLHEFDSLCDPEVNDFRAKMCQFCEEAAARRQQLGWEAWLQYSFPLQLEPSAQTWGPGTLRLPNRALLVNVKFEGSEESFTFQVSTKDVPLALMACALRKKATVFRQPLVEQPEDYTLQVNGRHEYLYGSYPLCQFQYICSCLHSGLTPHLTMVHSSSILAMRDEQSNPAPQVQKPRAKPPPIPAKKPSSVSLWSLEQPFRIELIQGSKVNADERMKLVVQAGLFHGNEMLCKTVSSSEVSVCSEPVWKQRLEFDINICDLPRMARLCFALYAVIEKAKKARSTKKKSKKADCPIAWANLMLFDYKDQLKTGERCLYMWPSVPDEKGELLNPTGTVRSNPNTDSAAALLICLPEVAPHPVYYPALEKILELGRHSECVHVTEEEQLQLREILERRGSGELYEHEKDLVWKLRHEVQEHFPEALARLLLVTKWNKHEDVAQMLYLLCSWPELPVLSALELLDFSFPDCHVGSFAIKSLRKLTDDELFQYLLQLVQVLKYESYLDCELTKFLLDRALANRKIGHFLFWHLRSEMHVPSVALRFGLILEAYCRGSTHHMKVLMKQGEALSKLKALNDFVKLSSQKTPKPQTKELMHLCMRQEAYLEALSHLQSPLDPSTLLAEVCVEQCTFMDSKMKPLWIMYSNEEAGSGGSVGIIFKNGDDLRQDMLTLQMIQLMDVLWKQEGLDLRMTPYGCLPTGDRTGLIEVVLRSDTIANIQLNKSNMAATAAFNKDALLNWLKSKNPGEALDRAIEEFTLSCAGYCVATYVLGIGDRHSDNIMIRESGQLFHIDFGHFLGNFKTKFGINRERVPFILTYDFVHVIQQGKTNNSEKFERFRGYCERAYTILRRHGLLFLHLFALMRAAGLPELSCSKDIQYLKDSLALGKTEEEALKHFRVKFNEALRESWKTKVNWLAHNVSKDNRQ
T2 sequence (P27986 whole entry partner): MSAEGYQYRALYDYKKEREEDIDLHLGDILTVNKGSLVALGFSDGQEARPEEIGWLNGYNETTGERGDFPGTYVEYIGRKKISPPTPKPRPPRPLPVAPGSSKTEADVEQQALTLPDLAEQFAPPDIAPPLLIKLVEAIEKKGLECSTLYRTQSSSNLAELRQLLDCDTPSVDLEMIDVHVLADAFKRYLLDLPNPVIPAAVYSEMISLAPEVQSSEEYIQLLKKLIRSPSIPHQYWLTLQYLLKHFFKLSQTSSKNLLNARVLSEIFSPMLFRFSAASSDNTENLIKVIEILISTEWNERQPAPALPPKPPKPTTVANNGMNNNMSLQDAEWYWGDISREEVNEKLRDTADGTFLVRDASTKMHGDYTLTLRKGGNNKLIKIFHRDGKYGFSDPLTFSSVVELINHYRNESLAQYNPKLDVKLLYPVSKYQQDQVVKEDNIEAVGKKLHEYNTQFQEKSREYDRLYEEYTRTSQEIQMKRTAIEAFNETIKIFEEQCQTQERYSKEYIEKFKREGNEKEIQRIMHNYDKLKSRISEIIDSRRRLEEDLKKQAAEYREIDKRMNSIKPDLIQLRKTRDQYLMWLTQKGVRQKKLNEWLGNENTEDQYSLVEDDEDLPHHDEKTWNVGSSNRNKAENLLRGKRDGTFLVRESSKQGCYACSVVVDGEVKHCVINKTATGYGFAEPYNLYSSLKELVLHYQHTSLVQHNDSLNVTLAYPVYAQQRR
T5 sequence (P06493 whole entry): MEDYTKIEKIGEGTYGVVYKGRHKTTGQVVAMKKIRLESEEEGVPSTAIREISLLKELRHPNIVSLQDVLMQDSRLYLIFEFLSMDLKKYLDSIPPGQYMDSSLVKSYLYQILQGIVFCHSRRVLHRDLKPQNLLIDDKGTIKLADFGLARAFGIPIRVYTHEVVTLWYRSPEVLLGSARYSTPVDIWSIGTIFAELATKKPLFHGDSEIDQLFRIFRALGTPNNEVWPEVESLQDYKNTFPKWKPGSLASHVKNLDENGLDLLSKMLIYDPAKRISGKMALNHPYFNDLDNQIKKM
T5 sequence (P14635 whole entry partner): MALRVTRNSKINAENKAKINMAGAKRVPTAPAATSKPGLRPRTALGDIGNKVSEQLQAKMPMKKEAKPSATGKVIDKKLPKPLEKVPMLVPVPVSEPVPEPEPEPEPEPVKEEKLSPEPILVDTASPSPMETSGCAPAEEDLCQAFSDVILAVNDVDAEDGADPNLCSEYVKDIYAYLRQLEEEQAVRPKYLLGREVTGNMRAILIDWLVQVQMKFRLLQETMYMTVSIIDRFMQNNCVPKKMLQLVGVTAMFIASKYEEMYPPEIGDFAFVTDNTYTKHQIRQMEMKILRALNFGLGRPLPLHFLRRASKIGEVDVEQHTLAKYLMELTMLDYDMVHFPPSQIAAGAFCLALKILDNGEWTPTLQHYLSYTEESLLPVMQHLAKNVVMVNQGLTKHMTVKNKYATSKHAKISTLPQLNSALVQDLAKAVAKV
T3 sequence (Q00534 whole entry): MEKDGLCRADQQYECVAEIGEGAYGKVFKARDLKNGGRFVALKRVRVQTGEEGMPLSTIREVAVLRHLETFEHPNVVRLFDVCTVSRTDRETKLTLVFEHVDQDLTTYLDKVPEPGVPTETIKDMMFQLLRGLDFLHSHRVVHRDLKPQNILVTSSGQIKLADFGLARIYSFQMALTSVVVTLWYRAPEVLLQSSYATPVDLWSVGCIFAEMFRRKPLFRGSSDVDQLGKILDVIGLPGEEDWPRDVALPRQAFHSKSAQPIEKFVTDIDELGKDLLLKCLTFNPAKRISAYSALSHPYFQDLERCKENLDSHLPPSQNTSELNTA
T3 sequence (P24385 whole entry partner): as the sequence (P24385 whole entry partner) above
T1 sequence (P07333 20-972): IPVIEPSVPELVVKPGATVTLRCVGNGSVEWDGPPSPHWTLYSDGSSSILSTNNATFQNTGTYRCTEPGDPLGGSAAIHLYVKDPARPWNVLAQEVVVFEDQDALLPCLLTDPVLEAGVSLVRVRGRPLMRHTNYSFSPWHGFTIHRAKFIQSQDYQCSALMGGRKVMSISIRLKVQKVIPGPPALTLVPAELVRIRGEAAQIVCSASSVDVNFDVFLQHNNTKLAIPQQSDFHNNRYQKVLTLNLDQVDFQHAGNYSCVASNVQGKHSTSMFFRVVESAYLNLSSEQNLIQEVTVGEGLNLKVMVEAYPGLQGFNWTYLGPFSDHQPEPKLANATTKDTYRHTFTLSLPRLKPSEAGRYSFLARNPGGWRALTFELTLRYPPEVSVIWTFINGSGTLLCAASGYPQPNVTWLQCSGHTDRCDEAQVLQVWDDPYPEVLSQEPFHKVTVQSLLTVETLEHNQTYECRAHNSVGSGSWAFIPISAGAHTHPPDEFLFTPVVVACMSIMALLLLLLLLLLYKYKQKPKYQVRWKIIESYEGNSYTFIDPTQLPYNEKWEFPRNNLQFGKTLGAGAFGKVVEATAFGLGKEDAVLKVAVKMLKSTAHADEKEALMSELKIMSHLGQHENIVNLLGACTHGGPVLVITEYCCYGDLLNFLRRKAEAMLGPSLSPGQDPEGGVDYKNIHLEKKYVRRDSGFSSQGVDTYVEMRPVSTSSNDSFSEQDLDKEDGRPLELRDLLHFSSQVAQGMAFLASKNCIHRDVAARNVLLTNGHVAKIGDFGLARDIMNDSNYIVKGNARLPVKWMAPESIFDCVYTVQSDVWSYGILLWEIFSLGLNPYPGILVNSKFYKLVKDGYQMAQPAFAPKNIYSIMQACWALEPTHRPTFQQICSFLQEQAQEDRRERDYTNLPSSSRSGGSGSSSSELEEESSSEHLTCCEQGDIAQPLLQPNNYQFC

SMILES | IC50 [1, 2] | IC50 (FMS kinase) | IC50 (PI3Kδ kinase) | IC50 (CDK6) | IC50 (CDK4) | IC50 (CDK1 (cyclin B)) | IC50 (CDK1 (cyclin B); read-out: CDK1/B IC50) | IC50 [1, 3]
N#Cc1cc2cnc(Nc3ccc(N4CCNCC4)c(F)c3)nc2n(C2CCCC2)c1=O [Compound No. 13, 8-cyclopentyl-2-((3-fluoro-4-(piperazin-1-yl)phenyl)amino)-7-oxo-7,8-dihydropyrido[2,3-d]pyrimidine-6-carbonitrile] | 158 nM | < 1 nM | 561 nM | 1.5 nM | 3.5 nM |  |  | 119 nM
N#Cc1cc2cnc(Nc3ccc4c(c3)CNCC4)nc2n(C2CCCC2)c1=O [Compound No. 29, 8-cyclopentyl-7-oxo-2-((1,2,3,4-tetrahydroisoquinolin-7-yl)amino)-7,8-dihydropyrido[2,3-d]pyrimidine-6-carbonitrile] | 240 nM | 2.5 nM | 552 nM | 13 nM | 7 nM |  | 441 nM | 
N#Cc1cc2cnc(Nc3ccc4c(c3)CCNC4)nc2n(C2CCCC2)c1=O [Compound No. 31, 8-cyclopentyl-7-oxo-2-((1,2,3,4-tetrahydroisoquinolin-6-yl)amino)-7,8-dihydropyrido[2,3-d]pyrimidine-6-carbonitrile] | 130 nM | 1 nM | 128 nM | 9 nM | 5 nM |  | 481 nM | 157 nM
N#Cc1cc2cnc(Nc3ccc4c(c3)CCNC4)nc2n(C2CC3CC3C2)c1=O (stereo not shown) [Compound No. 342, 8-(bicyclo[3.1.0]hexan-3-yl)-7-oxo-2-((1,2,3,4-tetrahydroisoquinolin-6-yl)amino)-7,8-dihydropyrido[2,3-d]pyrimidine-6-carbonitrile] | 415 nM | < 1 nM | 421 nM | 22 nM | 10 nM |  | 439 nM | 192 nM

Further lines, with some results ahead:

IC50 [1, 2] | IC50 (FMS kinase) | IC50 (PI3Kδ kinase) | IC50 (CDK6) | IC50 (CDK4) | IC50 (CDK1 (cyclin B)) | IC50 (CDK1 (cyclin B); read-out: CDK1/B IC50) | SMILES | IC50 [1, 3]
3140 nM | 674 nM | > 50000 nM | 55 nM | 40 nM | 1110 nM |  | CS(=O)(=O)N1CCC(Nc2ncc3cc(C#N)c(=O)n(C4CCC(F)(F)C4)c3n2)CC1 (racemic) [Compound No. 345, 8-(3,3-difluorocyclopentyl)-2-((1-(methylsulfonyl)piperidin-4-yl)amino)-7-oxo-7,8-dihydropyrido[2,3-d]pyrimidine-6-carbonitrile] | 3970 nM
2000 nM |  | 12100 nM | 4 nM | 2.6 nM | 53 nM |  | CS(=O)(=O)N1CCC(Nc2ncc3cc(C#N)c(=O)n(C4CCCC4)c3n2)CC1 [Compound No. 93, 8-cyclopentyl-2-((1-(methylsulfonyl)piperidin-4-yl)amino)-7-oxo-7,8-dihydropyrido[2,3-d]pyrimidine-6-carbonitrile] | 558 nM
835 nM | 166 nM | > 50000 nM | 8.5 nM | 3.5 nM |  | 197 nM | CS(=O)(=O)N1CCC(Nc2ncc3cc(C#N)c(=O)n(C4CC5CC5C4)c3n2)CC1 (stereo not shown) [Compound No. 341, 8-(bicyclo[3.1.0]hexan-3-yl)-2-((1-(methylsulfonyl)piperidin-4-yl)amino)-7-oxo-7,8-dihydropyrido[2,3-d]pyrimidine-6-carbonitrile] | 487 nM
